According to BindingDB's records for doi:10.1021/acsmedchemlett.0c00107 (Usona Institute, 2020):

These compounds were tested against T1, Estrogen receptor (Homo sapiens, UniProt P03372) (assay: Induction of ERalpha protein degradation in human MCF7 cells assessed as reduction in ERalpha protein levels incubated for 24 hrs by In-cell western assay). Details: read-out: IC50 (the source's name).
T1 sequence (P03372 whole entry): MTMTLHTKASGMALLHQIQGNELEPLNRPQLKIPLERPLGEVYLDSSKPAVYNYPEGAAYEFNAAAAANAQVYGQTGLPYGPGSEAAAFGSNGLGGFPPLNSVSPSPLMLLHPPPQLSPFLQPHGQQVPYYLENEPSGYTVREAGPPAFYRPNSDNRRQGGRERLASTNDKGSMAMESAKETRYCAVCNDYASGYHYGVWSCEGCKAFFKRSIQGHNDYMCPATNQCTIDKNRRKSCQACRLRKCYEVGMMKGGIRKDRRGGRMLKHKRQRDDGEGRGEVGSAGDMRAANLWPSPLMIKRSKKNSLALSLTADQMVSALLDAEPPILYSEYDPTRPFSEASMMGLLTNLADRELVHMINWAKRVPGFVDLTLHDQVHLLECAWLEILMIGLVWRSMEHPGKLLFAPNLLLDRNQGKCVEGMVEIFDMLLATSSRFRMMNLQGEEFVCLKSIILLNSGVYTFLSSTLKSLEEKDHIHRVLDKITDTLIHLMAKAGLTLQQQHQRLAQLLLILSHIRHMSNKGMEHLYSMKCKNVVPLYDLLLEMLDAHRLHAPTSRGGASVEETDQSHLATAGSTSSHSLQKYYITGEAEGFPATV
Compound O=C(NCCCCOc1ccc(C(=C2C3CC4CC(C3)CC2C4)c2ccc(O)cc2)cc1)[C@H]1C[C@@H]2C=C[C@H]1C2 has a DC50 of 0.5 nM.
CC(C)(C)OC(=O)N[C@@H](Cc1c[nH]c2ccccc12)C(=O)NCCCCOc1ccc(C(=C2C3CC4CC(C3)CC2C4)c2ccc(O)cc2)cc1 showed a DC50 of 0.5 nM.
O=C(NCCCCOc1ccc(C(=C2C3CC4CC(C3)CC2C4)c2ccc(O)cc2)cc1)[C@H]1CC[C@H](C(F)(F)F)CC1 showed a DC50 of 2 nM.
